Results published in patent publication US20220378707A1, “1-(((2S,3S,4S)-3-ETHYL-4-FLUORO-5-OXOPYRROLIDIN-2-YL)METHOXY)-7-METHOXYISOQUINOLINE-6-CARBOXAMIDE COMBINATIONS AND ORAL DOSAGE FORMS” (Pfizer Inc., priority 2019, published 2022).

Tested on: coronary artery smooth muscle cells+(IL-1p, TNFα and IFNγ)
Assay: BioMAP CASM3C system
Type: cell-based, human
Settings: Th1 vascular smooth muscle inflammation; concentrations of FIGS. 12-14
Text: The BioMAP systems consist of human primary cell-based systems designed to model different aspects of the human body in an in vitro format. The 12 systems tested characterized the test compounds across a broad set of systems modeling various human disease states. BioMAP systems were constructed with one or more primary cell types from healthy human donors, with stimuli (such as cytokines or growth factors) added to capture relevant signaling networks that naturally occur in human tissue or pathological conditions. […] Soluble factors from supernatants were quantified using either HTRF® detection, bead-based multiplex immunoassay or capture ELISA. Overt adverse effects of test agents on cell proliferation and viability (cytotoxicity) were detected by sulforhodamine B (SRB) staining, for adherent cells, and alamarBlue® reduction for cells in suspension. […] Each tested compound generated a signature BioMAP profile that was created from the changes in protein biomarker readouts within individual system environments. […] Each readout was measured quantitatively by immune-based methods that detected protein (e.g., ELISA) or functional assays that measured proliferation and viability. BioMAP readouts were diverse and included cell surface receptors, cytokines, chemokines, matrix molecules and enzymes. […]

SMILES | Inhibition of biomarker readouts in the CASM3C system
CC[C@@H]1[C@H](F)C(=O)N[C@@H]1COc1nccc2cc(C(N)=O)c(OC)cc12 [PF-06650833, 1-(((2S,3S,4S)-3-Ethyl-4-fluoro-5-oxopyrrolidin-2-yl)methoxy)-7-methoxyisoquinoline-6-carboxamide] | IL-6
C[C@@H]1CCN(C(=O)CC#N)C[C@@H]1N(C)c1ncnc2[nH]ccc12 [tofacitinib, 3-((3R,4R)-4-Methyl-3-(methyl(7H-pyrrolo[2,3-d]pyrimidin-4-yl)amino)piperidin-1-yl)-3-oxopropanenitrile] | MIG
